According to patent US7332501B2, “Indol-3-yl-carbonyl-spiro-piperidine derivatives as V1a receptor antagonists” (Hoffmann-La Roche Inc., priority 2005, dated 2008):
Counter-ions that a name gives are not always drawn.

Target: T1, human V1a receptor (Homo sapiens, UniProt P37288)
T1 construct: expressed in transfected cells; host or cells: HEK293 cells, transiently transfected; cell membranes
Assay: human V1a receptor binding (3H-Vasopressin SPA, HEK293 membranes)
Details: displacement of 4 nM 3H-Vasopressin, membranes of HEK293 cells transiently transfected with human V1a receptor; Ki from IC50 by Cheng-Prussoff
Method in brief: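 Transiently transfected HEK293 membranes on yttrium silicate SPA beads in Tris binding buffer (120 mM NaCl, 5 mM KCl, 2 mM CaCl2, 10 mM MgCl2). 3H-vasopressin added as 4 nM working solution; excess cold vasopressin set non-specific binding. 1 h at room temperature, then counting; Ki from fitted IC50 via Cheng-Prusoff.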

T1 sequence (P37288 whole entry): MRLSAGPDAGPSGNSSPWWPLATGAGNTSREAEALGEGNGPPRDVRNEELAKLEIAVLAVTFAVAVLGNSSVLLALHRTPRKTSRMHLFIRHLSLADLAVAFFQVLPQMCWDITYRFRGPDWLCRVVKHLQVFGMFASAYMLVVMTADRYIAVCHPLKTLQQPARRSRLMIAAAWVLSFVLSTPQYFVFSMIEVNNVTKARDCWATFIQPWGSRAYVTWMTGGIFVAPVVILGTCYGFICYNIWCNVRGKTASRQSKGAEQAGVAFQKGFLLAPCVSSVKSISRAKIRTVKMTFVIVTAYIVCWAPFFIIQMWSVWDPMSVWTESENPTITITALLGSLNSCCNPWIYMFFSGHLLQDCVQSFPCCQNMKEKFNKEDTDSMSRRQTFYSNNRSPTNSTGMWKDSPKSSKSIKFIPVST

`O=C1OC2(CCN(C(=O)c3cn(Cc4ccccn4)c4cc(Cl)ccc34)CC2)c2ccccc21` [Example 180, 1′-{[6-Chloro-1-(pyridin-2-ylmethyl)-1H-indol-3-yl]carbonyl}-3H-spiro[2-benzofuran-1,4′-piperidin]-3-one] was tested. Which Ki did it give?
The Ki was 1.5 nM.

For `Cc1nc(Cn2cc(C(=O)N3CCC4(CC3)OC(=O)c3cc(F)ccc34)c3ccc(Cl)cc32)c(C2CC2)o1` [Example 182, 1′-({6-Chloro-1-[(5-cyclopropyl-2-methyl-1,3-oxazol-4-yl)methyl]-1H-indol-3-yl}carbonyl)-5-fluoro-3H-spiro[2-benzofuran-1,4′-piperidin]-3-one], which Ki is on record?
The Ki was 4 nM.

For `Cn1cncc1Cn1cc(C(=O)N2CCC3(CC2)OC(=O)c2cc(F)ccc23)c2ccc(Cl)cc21` [Example 183, 1′-({6-Chloro-1-[(1-methyl-1H-imidazol-5-yl)methyl]-1H-indol-3-yl}carbonyl)-5-fluoro-3H-spiro[2-benzofuran-1,4′-piperidin]-3-one], which Ki is on record?
The Ki was 5.2 nM.

`Cc1cc(Cn2cc(C(=O)N3CCC4(CC3)OC(=O)c3cc(F)ccc34)c3ccc(Cl)cc32)on1` [Example 184, 1′-({6-Chloro-1-[(3-methylisoxazol-5-yl)methyl]-1H-indol-3-yl}carbonyl)-5-fluoro-3H-spiro[2-benzofuran-1,4′-piperidin]-3-one] was tested. Which Ki did it give?
The Ki was 3.4 nM.

How did the Ki turn out when `Cc1cc(Cn2cc(C(=O)N3CCC4(CC3)OC(=O)c3cc(F)ccc34)c3ccc(Cl)cc32)nn1C` [Example 185, 1′-({6-Chloro-1-[(1,5-dimethyl-1H-pyrazol-3-yl)methyl]-1H-indol-3-yl}carbonyl)-5-fluoro-3H-spiro[2-benzofuran-1,4′-piperidin]-3-one] was run?
The Ki was 2.2 nM.

With `Cc1noc(C)c1Cn1cc(C(=O)N2CCC3(CC2)OC(=O)c2cc(F)ccc23)c2ccc(Cl)cc21` [Example 186, 1′-({6-Chloro-1-[(3,5-dimethylisoxazol-4-yl)methyl]-1H-indol-3-yl}carbonyl)-5-fluoro-3H-spiro[2-benzofuran-1,4′-piperidin]-3-one] as the compound, how does the Ki read?
Its Ki is 2.9 nM.

Which Ki does the source give for `Cc1nc(Cn2cc(C(=O)N3CCC4(CC3)OC(=O)c3cc(F)ccc34)c3ccc(Cl)cc32)c(C)o1` [Example 187, 1′-({6-Chloro-1-[(2,5-dimethyl-1,3-oxazol-4-yl)methyl]-1H-indol-3-yl}carbonyl)-5-fluoro-3H-spiro[2-benzofuran-1,4′-piperidin]-3-one] here?
Its Ki is 3.6 nM.

`O=C1OC2(CCN(C(=O)c3cn(CC4(F)COC4)c4cc(Cl)ccc34)CC2)c2ccc(F)cc21` [Example 188, 1′-({6-Chloro-1-[(3-fluorooxetan-3-yl)methyl]-1H-indol-3-yl}carbonyl)-5-fluoro-3H-spiro[2-benzofuran-1,4′-piperidin]-3-one] was tested. Which Ki did it give?
The Ki was 1.6 nM.

`O=C1OC2(CCN(C(=O)c3cn(CC4(F)COC4)c4cc(Cl)ccc34)CC2)c2ccccc21` [Example 189, 1′-({6-Chloro-1-[(3-fluorooxetan-3-yl)methyl]-1H-indol-3-yl}carbonyl)-3H-spiro[2-benzofuran-1,4′-piperidin]-3-one] was tested. Which Ki did it give?
The Ki was 1.7 nM.

How did the Ki turn out when `COCC1(Cn2cc(C(=O)N3CCC4(CC3)OC(=O)c3cc(F)ccc34)c3ccc(Cl)cc32)CC1` [Example 190, 1′-[(6-Chloro-1-{[1-(methoxymethyl)cyclopropyl]methyl}-1H-indol-3-yl)carbonyl]-5-fluoro-3H-spiro[2-benzofuran-1,4′-piperidin]-3-one] was run?
The Ki was 2.6 nM.

For `N#CCC1(Cn2cc(C(=O)N3CCC4(CC3)OC(=O)c3cc(F)ccc34)c3ccc(Cl)cc32)CC1` [Example 191, [1-({6-Chloro-3-[(5-fluoro-3-oxo-1′H,3H-spiro[2-benzofuran-1,4′-piperidin]-1′-yl)carbonyl]-1H-indol-1-yl}methyl)cyclopropyl]acetonitrile], which Ki is on record?
Its Ki is 2.8 nM.

With `COCC1(Cn2cc(C(=O)N3CCC4(CC3)OC(=O)c3ccccc34)c3ccc(Cl)cc32)CC1` [Example 192, 1′-[(6-Chloro-1-{[1-(methoxymethyl)cyclopropyl]methyl}-1H-indol-3-yl)carbonyl]-3H-spiro[2-benzofuran-1,4′-piperidin]-3-one] as the compound, how does the Ki read?
Its Ki is 2.4 nM.

For `N#CCC1(Cn2cc(C(=O)N3CCC4(CC3)OC(=O)c3ccccc34)c3ccc(Cl)cc32)CC1` [Example 193, [1-({6-Chloro-3-[(3-oxo-1′H,3H-spiro[2-benzofuran-1,4′-piperidin]-1′-yl)carbonyl]-1H-indol-1-yl}methyl)cyclopropyl]acetonitrile], which Ki is on record?
The Ki was 2.1 nM.

For `CNCCNC(=O)c1[nH]c2cc(Cl)ccc2c1C(=O)N1CCC2(CC1)OC(=O)c1cc(F)ccc12` [Example 194, 6-Chloro-3-[(5-fluoro-3-oxo-1′H,3H-spiro[2-benzofuran-1,4′-piperidin]-1′-yl)carbonyl]-N-[2-(methylamino)ethyl]-1H-indole-2-carboxamide hydrochloride], which Ki is on record?
Its Ki is 15.1 nM.

`O=C1OC2(CCN(C(=O)c3cn(CCC4CCOCC4)c4cc(Cl)ccc34)CC2)c2ccc(F)cc21` [Example 195, 1′-({6-Chloro-1-[2-(tetrahydro-2H-pyran-4-yl)ethyl]-1H-indol-3-yl}carbonyl)-5-fluoro-3H-spiro[2-benzofuran-1,4′-piperidin]-3-one hydrochloride] was tested. Which Ki did it give?
The Ki was 2.1 nM.

Which Ki does the source give for `O=C1OC2(CCN(C(=O)c3cn(CCC4CCOCC4)c4cc(Cl)ccc34)CC2)c2ccccc21` [Example 196, 1′-({6-Chloro-1-[2-(tetrahydro-2H-pyran-4-yl)ethyl]-1H-indol-3-yl}carbonyl)-3H-spiro[2-benzofuran-1,4′-piperidin]-3-one] here?
Its Ki is 1.4 nM.

Which Ki does the source give for `CC(C)(C)OC(=O)N1CCOC(Cn2cc(C(=O)N3CCC4(CC3)OC(=O)c3ccccc34)c3ccc(Cl)cc32)C1` (stereo not drawn) [Example 197, tert-Butyl 2-({6-chloro-3-[(3-oxo-1′H,3H-spiro[2-benzofuran-1,4′-piperidin]-1′-yl)carbonyl]-1H-indol-1-yl}methyl)morpholine-4-carboxylate] here?
Its Ki is 3 nM.

How did the Ki turn out when `O=C1OC2(CCN(C(=O)c3cn(CC4CNCCO4)c4cc(Cl)ccc34)CC2)c2ccccc21` (stereo not drawn) [Example 198, 1′-{[6-Chloro-1-(morpholin-2-ylmethyl)-1H-indol-3-yl]carbonyl}-3H-spiro[2-benzofuran-1,4′-piperidin]-3-one hydrochloride] was run?
The Ki was 3.3 nM.

With `CC(C)(C)OC(=O)N1CCOC(Cn2cc(C(=O)N3CCC4(CC3)OC(=O)c3cc(F)ccc34)c3ccc(Cl)cc32)C1` (stereo not drawn) [Example 199, tert-Butyl 2-({6-chloro-3-[(5-fluoro-3-oxo-1′H,3H-spiro[2-benzofuran-1,4′-piperidin]-1′-yl)carbonyl]-1H-indol-1-yl}methyl)morpholine-4-carboxylate] as the compound, how does the Ki read?
The Ki was 3.3 nM.

With `O=C1OC2(CCN(C(=O)c3cn(CC4CNCCO4)c4cc(Cl)ccc34)CC2)c2ccc(F)cc21` (stereo not drawn) [Example 200, 1′-{[6-Chloro-1-(morpholin-2-ylmethyl)-1H-indol-3-yl]carbonyl}-5-fluoro-3H-spiro[2-benzofuran-1,4′-piperidin]-3-one dihydrochloride] as the compound, how does the Ki read?
The Ki was 5.8 nM.

`O=C1OC2(CCN(C(=O)c3cn(Cc4cc(F)cc(F)c4)c4ccccc34)CC2)c2ccc(F)cc21` [Example 201, 1′-{[1-(3,5-Difluorobenzyl)-1H-indol-3-yl]carbonyl}-5-fluoro-3H-spiro[2-benzofuran-1,4′-piperidin]-3-one] was tested. Which Ki did it give?
Its Ki is 4.6 nM.

Which Ki does the source give for `O=C1OC2(CCN(C(=O)c3cn(Cc4cc(F)cc(F)c4)c4ccccc34)CC2)c2ccccc21` [Example 202, 1′-{[1-(3,5-Difluorobenzyl)-1H-indol-3-yl]carbonyl}-3H-spiro[2-benzofuran-1,4′-piperidin]-3-one] here?
Its Ki is 4.3 nM.

For `CCN(CC)C(=O)Cn1cc(C(=O)N2CCC3(CC2)OC(=O)c2ccccc23)c2ccccc21` [Example 203, N,N-Diethyl-2-{3-[(3-oxo-1′H,3H-spiro[2-benzofuran-1,4′-piperidin]-1′-yl)carbonyl]-1H-indol-1-yl}acetamide], which Ki is on record?
The Ki was 11.7 nM.

How did the Ki turn out when `O=C(Cn1cc(C(=O)N2CCC3(CC2)OCc2ccccc23)c2ccc(Cl)cc21)N1CCCCC1` [Example 204, 1′-{[6-Chloro-1-(2-oxo-2-piperidin-1-ylethyl)-1H-indol-3-yl]carbonyl}-3H-spiro[2-benzofuran-1,4′-piperidine]] was run?
Its Ki is 1.1 nM.

With `O=C(Cn1cc(C(=O)N2CCC3(CC2)OCc2ccccc23)c2ccc(Cl)cc21)N1CCOCC1` [Example 205, 1′-{[6-Chloro-1-(2-morpholin-4-yl-2-oxoethyl)-1H-indol-3-yl]carbonyl}-3H-spiro[2-benzofuran-1,4′-piperidine]] as the compound, how does the Ki read?
The Ki was 1 nM.

`CN(C)C(=O)Cn1cc(C(=O)N2CCC3(CC2)OCc2ccccc23)c2ccc(Cl)cc21` [Example 206, 2-[6-Chloro-3-(1′H,3H-spiro[2-benzofuran-1,4′-piperidin]-1′-ylcarbonyl)-1H-indol-1-yl]-N,N-dimethylacetamide] was tested. Which Ki did it give?
Its Ki is 0.5 nM.

For `CCN(CC)C(=O)Cn1cc(C(=O)N2CCC3(CC2)OCc2ccccc23)c2ccc(Cl)cc21` [Example 207, 2-[6-Chloro-3-(1′H,3H-spiro[2-benzofuran-1,4′-piperidin]-1′-ylcarbonyl)-1H-indol-1-yl]-N,N-diethylacetamide], which Ki is on record?
The Ki was 1.1 nM.

For `O=C(c1cn(C(=O)N2CCCCC2)c2cc(Cl)ccc12)N1CCC2(CC1)OCc1ccccc12` [Example 208, 1′-{[6-Chloro-1-(piperidin-1-ylcarbonyl)-1H-indol-3-yl]carbonyl}-3H-spiro[2-benzofuran-1,4′-piperidine]], which Ki is on record?
Its Ki is 2.6 nM.

For `CC(C)(C)OC(=O)Cn1cc(C(=O)N2CCC3(CC2)OCc2ccccc23)c2ccc(Cl)cc21` [Example 209, tert-Butyl[6-chloro-3-(1′H,3H-spiro[2-benzofuran-1,4′-piperidin]-1′-ylcarbonyl)-1H-indol-1-yl]acetate], which Ki is on record?
Its Ki is 1 nM.

Which Ki does the source give for `CN(C)CCn1cc(C(=O)N2CCC3(CC2)OCc2ccccc23)c2ccc(Cl)cc21` [Example 210, 2-[6-Chloro-3-(1′H,3H-spiro[2-benzofuran-1,4′-piperidin]-1′-ylcarbonyl)-1H-indol-1-yl]-N,N-dimethylethanamine] here?
The Ki was 1 nM.
